Results on nine compounds are retold here after PubChem BioAssay (NCI).

Some test systems named below: OVCAR-4 ovarian; UACC-257 melanoma; RPMI-8226 leukemia; SK-MEL-28 melanoma; SK-MEL-5 melanoma; BT-549 breast; MALME-3M melanoma; SF-295 CNS; MDA-MB-231 breast; CAKI-1 renal.
Common to all, as to experiment: NCI-60 cell line screen, 48 h

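A five-concentration, 48-hour dose response in 96-well plates underlies each endpoint, interpolated linearly between surrounding concentrations. At the GI50, growth is halved. At the TGI there is no net growth.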 Where only a bound is given, the exact number is not on record here.

Consider `N#CC1c2ccccc2-c2ccccc2N1C(=O)c1ccccc1` (stereo not drawn), for which the GI50 was 3290 nM in the experiment with OVCAR-4 ovarian; 5320 nM in the experiment with UACC-257 melanoma; 903 nM in the experiment on RPMI-8226 leukemia; 1750 nM in the experiment on SK-MEL-28 melanoma; 1550 nM in the experiment on SK-MEL-5 melanoma; 507 nM in the experiment on BT-549 breast. The results for the GI50 with MALME-3M melanoma, in the experiment on SF-295 CNS and in the experiment on MDA-MB-231 breast were 1220 nM, 2630 nM and 2610 nM, respectively. Further, the TGI is over 72300 nM in the experiment on OVCAR-4 ovarian; over 54500 nM in the experiment with UACC-257 melanoma; 5320 nM in the experiment on RPMI-8226 leukemia; over 100000 nM in the experiment with SK-MEL-28 melanoma; 4840 nM with SK-MEL-5 melanoma; 2540 nM with BT-549 breast. Also, the TGI with MALME-3M melanoma was 54200 nM; with SF-295 CNS it was over 100000 nM; in the experiment on MDA-MB-231 breast, 9060 nM.

As for `COC(=O)c1cc(Nc2ccc(O)c3c2C(=O)c2c([N+](=O)[O-])ccc(O)c2C3=O)cc(C(=O)OC)c1`, the GI50 was 3990 nM in the experiment with OVCAR-4 ovarian; 3230 nM in the experiment with UACC-257 melanoma; 77100 nM in the experiment on CAKI-1 renal; 3840 nM in the experiment on RPMI-8226 leukemia; 13700 nM in the experiment with BT-549 breast; 2750 nM with MALME-3M melanoma. Also, the GI50 in the experiment on SF-295 CNS is 21800 nM; in the experiment with MDA-MB-231 breast, 13800 nM. For the same compound, the TGI with OVCAR-4 ovarian is over 100000 nM; in the experiment with UACC-257 melanoma, over 100000 nM; with CAKI-1 renal, over 100000 nM; in the experiment on RPMI-8226 leukemia it was over 100000 nM; with BT-549 breast it was over 100000 nM; in the experiment with MALME-3M melanoma, 6390 nM. Besides, the TGI in the experiment on SF-295 CNS and with MDA-MB-231 breast was over 100000 nM in each case.

In the case of `Cc1ccc([P+](Cc2ccc([N+](=O)[O-])cc2)(c2ccc(C)cc2)c2ccc(C)cc2)cc1`, the GI50 in the experiment on OVCAR-4 ovarian is 2200 nM; with UACC-257 melanoma, 1690 nM; in the experiment with CAKI-1 renal, 18000 nM; in the experiment on RPMI-8226 leukemia it was 1020 nM; with SK-MEL-28 melanoma, 2820 nM; with SK-MEL-5 melanoma, 1220 nM. In addition, the values for the GI50 with BT-549 breast, with SF-295 CNS and in the experiment with MDA-MB-231 breast were 2680 nM, 5240 nM and 1460 nM, respectively. Also, the TGI came to 11300 nM in the experiment with OVCAR-4 ovarian; 5300 nM in the experiment on UACC-257 melanoma; 47100 nM with CAKI-1 renal; 4860 nM in the experiment on RPMI-8226 leukemia; 12900 nM in the experiment with SK-MEL-28 melanoma; 2520 nM in the experiment with SK-MEL-5 melanoma. The TGI in the experiment with BT-549 breast worked out at 8870 nM; in the experiment with SF-295 CNS, 18600 nM; with MDA-MB-231 breast, 7380 nM.

In the case of `CC[C@@]1(OC(=O)CN)C(=O)OCc2c1cc1n(c2=O)Cc2cc3cc(N)ccc3nc2-1`, the GI50 is 363 nM in the experiment with OVCAR-4 ovarian; 88.7 nM with UACC-257 melanoma; under 10 nM in the experiment on CAKI-1 renal; 753 nM with SK-MEL-28 melanoma; 18.1 nM in the experiment with SK-MEL-5 melanoma; 1300 nM in the experiment with BT-549 breast. In addition, the figures for the GI50 in the experiment with MALME-3M melanoma, in the experiment on SF-295 CNS and in the experiment with MDA-MB-231 breast were 195 nM, under 10 nM and 769 nM, respectively. Also, the TGI in the experiment with OVCAR-4 ovarian is 2700 nM; in the experiment on UACC-257 melanoma, 1660 nM; with CAKI-1 renal it was 39.8 nM; in the experiment with SK-MEL-28 melanoma it was over 100000 nM; in the experiment on SK-MEL-5 melanoma, 141 nM; with BT-549 breast, over 100000 nM. Besides, the TGI with MALME-3M melanoma is 2520 nM; in the experiment on SF-295 CNS, over 100000 nM; in the experiment with MDA-MB-231 breast it was over 100000 nM.

As to `COc1ccc(C2=CC(c3cc(OC)c(OC)c(OC)c3)n3ncnc3N2)cc1` (stereo not drawn), the GI50 in the experiment on OVCAR-4 ovarian was 391 nM; in the experiment with RPMI-8226 leukemia, 43.9 nM; in the experiment with SK-MEL-28 melanoma it was 10900 nM; in the experiment on SK-MEL-5 melanoma, 42.7 nM; in the experiment with BT-549 breast, 68.4 nM; in the experiment with SF-295 CNS it was 22.8 nM. For the same compound, the GI50 in the experiment with MDA-MB-231 breast is 193 nM. Moreover, the TGI with OVCAR-4 ovarian is 39500 nM; in the experiment on RPMI-8226 leukemia, 81300 nM; in the experiment with SK-MEL-28 melanoma, over 100000 nM; with SK-MEL-5 melanoma, 374 nM; in the experiment with BT-549 breast, 2040 nM; in the experiment with SF-295 CNS, 74.2 nM. The same compound yielded a TGI with MDA-MB-231 breast of 83500 nM.

Regarding `CCCCCCCCCCCCCCCC[N+]1(CC)CCCC1`, the GI50 in the experiment with OVCAR-4 ovarian was 315 nM; in the experiment with UACC-257 melanoma it was 1580 nM; with CAKI-1 renal it was 1750 nM; in the experiment on SK-MEL-28 melanoma, 1180 nM; with SK-MEL-5 melanoma, 400 nM; in the experiment with MALME-3M melanoma, 582 nM. In addition, the GI50 with MDA-MB-231 breast was 589 nM. The TGI in the experiment with OVCAR-4 ovarian was found to be 2250 nM; in the experiment on UACC-257 melanoma, 3760 nM; with CAKI-1 renal, 11300 nM; in the experiment with SK-MEL-28 melanoma it was 2810 nM; in the experiment on SK-MEL-5 melanoma, 1520 nM; in the experiment on MALME-3M melanoma, 1980 nM. Further, the TGI with MDA-MB-231 breast stood at 2190 nM.

On to `O=C(Oc1c(I)ccccc1=O)c1ccc([N+](=O)[O-])cc1`, for which the TGI amounted to 35100 nM with UACC-257 melanoma; 55100 nM with CAKI-1 renal; 88000 nM in the experiment on RPMI-8226 leukemia; 21700 nM with SK-MEL-28 melanoma; 13600 nM in the experiment with SK-MEL-5 melanoma; 41800 nM in the experiment on BT-549 breast. Moreover, the TGI in the experiment with MALME-3M melanoma is 30700 nM; in the experiment on SF-295 CNS, 62100 nM; in the experiment on MDA-MB-231 breast, 87700 nM.

With `O=C(OCc1ccccc1CN1CCOCC1)c1ccc(Br)cc1`, the TGI in the experiment with OVCAR-4 ovarian is over 100000 nM; in the experiment on UACC-257 melanoma it was over 100000 nM; in the experiment on RPMI-8226 leukemia, 49700 nM; with SK-MEL-28 melanoma it was over 100000 nM; with SK-MEL-5 melanoma, 41900 nM; in the experiment on BT-549 breast, over 100000 nM. Further, the TGI in the experiment with MALME-3M melanoma was 60400 nM; in the experiment on MDA-MB-231 breast, over 100000 nM.

As for `COC(=O)[C@H](Cc1ccccc1)NC(=O)c1csc([C@@H](C[C@H](C(C)C)N(C)C(=O)[C@@H](NC(=O)[C@H]2CCCCN2C)C2CC2)OC(C)=O)n1`, the GI50 with OVCAR-4 ovarian was 1620 nM; in the experiment on UACC-257 melanoma, over 10700 nM; in the experiment on RPMI-8226 leukemia it was 19 nM; with SK-MEL-28 melanoma, 1010 nM; with SK-MEL-5 melanoma it was 52.1 nM; in the experiment with BT-549 breast it was 34.9 nM. For the same compound, the GI50 with MALME-3M melanoma is 2160 nM; in the experiment with SF-295 CNS, 33.4 nM; in the experiment on MDA-MB-231 breast it was 76.3 nM. In addition, the TGI in the experiment on OVCAR-4 ovarian is over 25000 nM; in the experiment on UACC-257 melanoma, over 25000 nM; in the experiment with RPMI-8226 leukemia, over 25000 nM; in the experiment with SK-MEL-28 melanoma, over 25000 nM; with SK-MEL-5 melanoma it was 3370 nM; in the experiment on BT-549 breast, 556 nM. Also, the TGI with MALME-3M melanoma was over 25000 nM; in the experiment on SF-295 CNS, over 25000 nM; with MDA-MB-231 breast, over 12500 nM.
